{
  "source": "patent US11000537B2",
  "about": "“Composition comprising novel ginsenoside” (AMOREPACIFIC CORPORATION, priority 2018, dated 2021)",
  "key": {"[1]": {"tested_on": "3T1-L1 adipocytes", "assay": "glucose uptake (glucose transport) in differentiated adipocytes", "assay_type": "cell-based", "settings": "10 μM, FIG. 13", "protocol": "3T1-L1 adipocytes (ATCC) were purchased, and 10% bovine calf serum (Hyclone) and 1% penicillin/streptomycin (Sigma) were added to a Dulbecco's Modified Eagle's Medium (Sigma) and cultured in a 5% CO2 culture medium. In order to differentiate preadipocyte cells into adipocytes, a culture plate was filled with cells and cultured for 48 hours. The cells were then replaced in a DMEM medium to which 10% fetal bovine serum (FBS) (Hyclone), 0.5 mM 3-isobutyl-1-methylxanthine (Sigma), 1 μM dexamethasone (Sigma), 5 μg/ml insulin (Sigma), and 1% penicillin/streptomycin were added and cultured for another 48 hours. Thereafter, the cells were further cultured for 14 days while being replaced in a medium containing 10% FBS, 5 μg/ml insulin, and 1% penicillin/streptomycin at two-day intervals to obtain fully differentiated adipocytes. […] As a positive control for measuring glucose uptake in blood, Metformin (Sigma; 10 μM), which is used as a diabetic therapeutic agent, was used, and novel ginsenoside GS #10, which is an example of the present disclosure, isolated from Ginseng seed extract and ginsenosides GS #01-GS #06, which are comparative examples of the present disclosure, were treated with 10 μM each. In addition, both insulin-dependent/independent glucose transport capacity was measured by treating insulin together, which may promote glucose uptake."}, "[2]": {"tested_on": "α-glucosidase", "assay": "α-glucosidase enzyme activity inhibition", "assay_type": "biochemical", "settings": "Test Example 1, FIG. 12; ginseng seed ginsenosides compared", "protocol": "(§1) As a polysaccharide degrading enzyme, pancreatic α-amylase and α-glucosidase were purchased from Sigma, and the enzyme activity of novel ginsenoside GS #10, which is an example of the present disclosure, isolated from Ginseng seed extract and ginsenosides GS #01-GS #06, which are comparative examples of the present disclosure, was measured. In order to measure α-amylase activity, enzyme solution was prepared by dissolving BSA 0.1 g, 0.01 g/L NaN3, α-amylase 0.2857 g in 50 mL of PBS (phosphate buffered saline), and 5 mM of p-nitrophenyl-α-D-maltopentoglycoside was dissolved in another PBS to make a substrate solution. 0.1 mL of the test substance was added to 0.5 mL of the enzyme solution, and then the initial absorbance was measured at 405 nm. After adding 0.5 mL of the substrate solution and reacting it for 5 minutes, the absorbance was measured again. The change in enzyme activity was measured by the difference in absorbance between the two reactions. The method for measuring α-glucosidase activity is the same as the method for measuring α-amylase activity, and differs only in α-glucosidase and substrate (p-nitrophenyl-α-D-glucopyranoside). As a positive control to observe the inhibition of enzyme activity, acarbose, which is an α-amylase inhibitor and α-glucosidase inhibitor derived from wheat seed sold by Sigma, was used."}, "[3]": {"tested_on": "pancreatic lipase", "assay": "pancreatic lipase activity inhibition (Pancreatic Lipase Activity Assay Kit)", "assay_type": "cell-based", "settings": "10 μM, 1 hour; FIG. 22", "protocol": "The hepatocyte cell line HepG2 purchased from the International Center for Biological Resources (ATCC) were placed in Dulbecco's Modified Eagle's Medium (Sigma) to which 10% fetal bovine serum (Hyclone) and 1% penicillin/streptomycin (Sigma) were added, and cultured in a 5% CO2 incubator. As a positive control for the cells, Xenical (Sigma), which are used as pancreatic lipase inhibitors and anti-obesity therapeutic agents, and seven types of ginsenosides (GS #01-GS #06, GS #10; 10 μM each) extracted from Ginseng seed were treated for 1 hour. In addition, Pancreatic Lipase Activity Assay Kit (Abcam) was used to observe the inhibition of each lipase activity."}, "[4]": {"tested_on": "adipocyte cell 3T3-L1", "assay": "fat accumulation in adipocytes (Oil-red O staining)", "assay_type": "cell-based", "settings": "10 μM during 48 hours of differentiation; FIG. 34", "protocol": "The adipocyte cell 3T3-L1 purchased from the International Center for Biological Resources (ATCC) were placed in Dulbecco's Modified Eagle's Medium (Sigma) to which 10% fetal bovine serum (Hyclone) and 1% penicillin/streptomycin (Sigma) were added, and cultured in a 5% CO2 incubator. In order to differentiate preadipocytes into adipocytes, the cells were filled in a culture plate and cultured. After 48 hours, the cells were replaced with Dulbecco's modified eagle medium (DMEM) to which 10% of fetal bovine serum (Hyclone), 0.5 mM of 3-isobutyl-1-methylxanthine (Sigma), 1 μM of dexamethasone (Sigma), 5 μg/ml of insulin (Sigma), 1% of penicillin/streptomycin (Sigma) were added and further cultured for 48 hours. […] As a control to confirm the effect of inhibiting adipocyte differentiation, 20 μM of bisphenol A diglycidyl ether (BADGE) (Sigma), a PPARγ (Peroxisome proliferator-activated receptor gamma) antagonist, was used. Thereafter, the cells were further cultured for 10 days while being replaced with a medium containing 10% FBS and 5 μg/ml insulin and 1% penicillin/streptomycin at two-day intervals to induce adipocyte differentiation.\nDifferentiated adipocytes treated with each of the seven types of ginsenosides were fixed with formaldehyde solution (Sigma), stained with Oil-red O staining solution (Sigma), and then dissolved with isopropanol (Sigma), and then the amount of the stained fat was quantified by measuring at 490 nm absorbance."}, "[5]": {"molecular_target": "T1, pancreatic α-amylase (Sus scrofa, UniProt P00690)", "T1 construct": "purchased Sigma", "T1 sequence (P00690 16-511)": "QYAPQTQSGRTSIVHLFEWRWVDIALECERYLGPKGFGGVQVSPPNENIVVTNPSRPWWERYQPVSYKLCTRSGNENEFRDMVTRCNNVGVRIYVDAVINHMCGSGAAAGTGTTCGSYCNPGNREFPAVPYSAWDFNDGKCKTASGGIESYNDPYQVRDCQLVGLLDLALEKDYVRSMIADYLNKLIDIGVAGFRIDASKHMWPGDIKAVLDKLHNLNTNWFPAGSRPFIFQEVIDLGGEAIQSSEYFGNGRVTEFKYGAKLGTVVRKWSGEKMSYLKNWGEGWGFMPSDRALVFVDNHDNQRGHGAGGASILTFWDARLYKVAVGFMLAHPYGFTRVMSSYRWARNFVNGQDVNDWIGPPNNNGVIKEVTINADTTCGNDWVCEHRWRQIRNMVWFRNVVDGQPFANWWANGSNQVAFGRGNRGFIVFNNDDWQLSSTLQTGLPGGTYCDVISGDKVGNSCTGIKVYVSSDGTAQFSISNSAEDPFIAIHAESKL", "assay": "α-amylase enzyme activity inhibition", "assay_type": "biochemical", "settings": "Test Example 1, FIG. 11; ginseng seed ginsenosides compared", "protocol": "as §1"}, "[6]": {"settings": "combined with insulin (+insulin)"}, "[7]": {"settings": "material-only treatment (−insulin)"}},
  "data": [
    {"smiles": "CC(C)=CCC[C@](C)(O[C@@H]1O[C@H](CO)[C@@H](O)[C@H](O)[C@H]1O)[C@H]1CC[C@]2(C)[C@@H]1[C@H](O)C[C@@H]1[C@@]3(C)CC[C@H](O)C(C)(C)[C@@H]3[C@@H](O[C@@H]3O[C@H](CO)[C@@H](O)[C@H](O)[C@H]3O)C[C@]12C", "note": "[GS #01, ginsenoside Rg1]", "values": [
      {"measurement": "glucose transport promotion", "setting": "[1]; [6]", "value": "further increase by insulin treatment"},
      {"measurement": "glucose transport promotion", "setting": "[1]; [7]", "value": "statistically significant glucose transport promotion"}
    ]},
    {"smiles": "CC(C)=CCC[C@](C)(O)[C@H]1CC[C@]2(C)[C@@H]1[C@H](O)C[C@@H]1[C@@]3(C)CC[C@H](O)C(C)(C)[C@@H]3[C@@H](O[C@@H]3O[C@H](CO)[C@@H](O)[C@H](O)[C@H]3O[C@@H]3O[C@@H](C)[C@H](O)[C@@H](O)[C@H]3O)C[C@]12C", "note": "[GS #02, ginsenoside Rg2]", "values": [
      {"measurement": "glucose transport promotion", "setting": "[1]; [6]", "value": "further increase by insulin treatment"},
      {"measurement": "glucose transport promotion", "setting": "[1]; [7]", "value": "statistically significant glucose transport promotion"}
    ]},
    {"smiles": "CC(C)=CCC[C@](C)(O[C@@H]1O[C@H](CO)[C@@H](O)[C@H](O)[C@H]1O)[C@H]1CC[C@]2(C)[C@@H]1[C@H](O)C[C@@H]1[C@@]3(C)CC[C@H](O)C(C)(C)[C@@H]3[C@@H](O[C@@H]3O[C@H](CO)[C@@H](O)[C@H](O)[C@H]3O[C@@H]3O[C@@H](C)[C@H](O)[C@@H](O)[C@H]3O)C[C@]12C", "note": "[GS #03, ginsenoside Re]", "values": [
      {"measurement": "glucose transport promotion", "setting": "[1]; [6]", "value": "further increase by insulin treatment"},
      {"measurement": "glucose transport promotion", "setting": "[1]; [7]", "value": "statistically significant glucose transport promotion"}
    ]},
    {"smiles": "CC(C)=CCC[C@](C)(O[C@@H]1O[C@H](CO[C@@H]2O[C@H](CO)[C@@H](O)[C@H](O)[C@H]2O)[C@@H](O)[C@H](O)[C@H]1O)[C@H]1CC[C@]2(C)[C@@H]1[C@H](O)C[C@@H]1[C@@]3(C)CC[C@H](O[C@@H]4O[C@H](CO)[C@@H](O)[C@H](O)[C@H]4O[C@@H]4O[C@H](CO)[C@@H](O)[C@H](O)[C@H]4O)C(C)(C)[C@@H]3CC[C@]12C", "note": "[GS #05, ginsenoside Rb1, reference compound]", "values": [
      {"measurement": "α-glucosidase activity inhibitory effect", "setting": "[2]", "value": "no activity inhibitory effect"},
      {"measurement": "pancreatic lipase activity inhibitory effect", "setting": "[3]", "value": "except for some of the previously known ginsenosides (GS #05, GS #06), all showed a significant inhibitory effect"},
      {"measurement": "fat accumulation inhibitory effect in adipocytes", "setting": "[4]", "value": "except some (GS #05, GS #06) of seven types of ginsenosides (GS #01-GS #06, GS #10; 10 μM each) extracted from Ginseng seeds, all of them was observed to reduce the amount of fats in adipocytes"}
    ]},
    {"smiles": "CC(C)=CCC[C@](C)(O[C@@H]1O[C@H](CO[C@@H]2OC[C@H](O)[C@H](O)[C@H]2O)[C@@H](O)[C@H](O)[C@H]1O)[C@H]1CC[C@]2(C)[C@@H]1[C@H](O)C[C@@H]1[C@@]3(C)CC[C@H](O[C@@H]4O[C@H](CO)[C@@H](O)[C@H](O)[C@H]4O[C@@H]4O[C@H](CO)[C@@H](O)[C@H](O)[C@H]4O)C(C)(C)[C@@H]3CC[C@]12C", "note": "[GS #06, ginsenoside Rb2, reference compound]", "values": [
      {"measurement": "α-amylase activity inhibitory effect", "setting": "[5]", "value": "all except GS #06 showed significant activity inhibitory effect"},
      {"measurement": "α-glucosidase activity inhibitory effect", "setting": "[2]", "value": "no activity inhibitory effect"},
      {"measurement": "pancreatic lipase activity inhibitory effect", "setting": "[3]", "value": "except for some of the previously known ginsenosides (GS #05, GS #06), all showed a significant inhibitory effect"},
      {"measurement": "fat accumulation inhibitory effect in adipocytes", "setting": "[4]", "value": "except some (GS #05, GS #06) of seven types of ginsenosides (GS #01-GS #06, GS #10; 10 μM each) extracted from Ginseng seeds, all of them was observed to reduce the amount of fats in adipocytes"}
    ]},
    {"smiles": "CN(C)C(=N)N=C(N)N", "note": "[metformin, Metformin]", "values": [
      {"measurement": "glucose transport promotion", "setting": "[1]; [6]", "value": "the glucose transport is further increased as compared with the insulin-only treatment group"}
    ]}
  ]
}
